# Assay results as given in paper PMC11747885, “Potent inhibitors of the human RNA ligase Rlig1 highlights its role in RNA integrity maintenance under oxidative cellular stress” (Chemical Science, 2025).
# pEC50, pIC50, pKi: −log10 of the molar value. “And” between values parts separate entries of the source, which are not always exact repeats. Equal entries are not always repeated. “Also recorded” adds a separate entry of the source. Where two headings read alike, the source gives them in different places.
# Assays:
# [1] = biological target: T1, Rlig1-AMP (Homo sapiens, UniProt Q8N999); assay: FRET-based high-throughput screening of inhibitors for Rlig1-AMP; assay type: biochemical; conditions: for 1-D Distance: difference of raw data w/o and w enzyme; for 1-D Distance.npi: normalized value (npi); for Raw data [w Enyzm]: with enzyme; for Raw data [w/o Enzym]: without enzyme
# T1 construct: made in house; host or cells: E. coli BL21 (DE3), pET15b-Rlig1
# T1 sequence (Q8N999 whole entry): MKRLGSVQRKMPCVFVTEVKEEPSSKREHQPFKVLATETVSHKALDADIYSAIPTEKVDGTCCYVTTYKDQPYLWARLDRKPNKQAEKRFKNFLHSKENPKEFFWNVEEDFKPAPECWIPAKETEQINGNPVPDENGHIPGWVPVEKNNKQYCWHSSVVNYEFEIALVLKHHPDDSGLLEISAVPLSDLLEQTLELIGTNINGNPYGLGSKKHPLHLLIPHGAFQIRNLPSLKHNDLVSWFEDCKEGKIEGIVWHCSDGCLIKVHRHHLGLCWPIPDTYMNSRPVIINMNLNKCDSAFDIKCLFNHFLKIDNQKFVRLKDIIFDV
# [2] = test system: kinesin-like protein KIFC1 (HSET/KIFC1); design: method as in MedChemExpress; conditions: ref MedChemExpress; cited from earlier work
# [3] = test system: SHSY5Y neuroblastoma cells; design: method as in MedChemExpress; conditions: ref MedChemExpress, cited from earlier work
# [4] = DMSO; ref MedChemExpress; cited from earlier work
# [5] = biological target: T1, Rlig1-AMP; assay: Radioactive RNA ligation assay (hit validation, 10 µM test and IC50 determination); assay type: biochemical; conditions: for pIC50: n = 3; for percentage inhibition (dose response curve for IC50): replicates I-III
# [6] = test system: HEK293 cells; assay: Light-microscopy of inhibitor- and menadione-treated HEK293 cells; assay type: cell-based, human; conditions: 30 µM compound 24 h, then menadione 5 h
# [7] = test system: HEK293 cells; assay: RNA integrity analysis of HEK293 cells treated with inhibitors and menadione (TapeStation 28S/18S rRNA); assay type: cell-based, human; conditions: 30 μM compound 24 h; Menadione 0 μM
# [8] = test system: DNA methyltransferases (DNMTs); conditions: cited from earlier work
# [9] = in vitro; conditions: human
# [10] = Cell viability assay of HEK293 cells treated with inhibitors and menadione; assay type: cell-based, human; conditions: human, HEK293 cells, 30 μM compound, 24 h, no menadione; read-out: cell viability without oxidative stress
# [11] = test system: HEK293 cells; assay: as above; assay type: cell-based, human; conditions: inhibitor 24 h, then 40 μM menadione 5 h
# [12] = test system: HEK293 cells; assay: Cell viability assay of HEK293 cells treated with inhibitors (CellTiter-Glo)
# [13] = biological target: T2, human DNA ligase 1 (hLig1) (Homo sapiens, UniProt P18858); assay: DNA ligation assay with various hLig1 concentration at constant inhibitor concentration; assay type: biochemical; conditions: 10 µM compound, 30 min 37 °C, three replicates
# T2 construct: made in house; host or cells: E. coli Rosetta BL21 (DE3), pET28a-hLig1
# T2 sequence (P18858 whole entry): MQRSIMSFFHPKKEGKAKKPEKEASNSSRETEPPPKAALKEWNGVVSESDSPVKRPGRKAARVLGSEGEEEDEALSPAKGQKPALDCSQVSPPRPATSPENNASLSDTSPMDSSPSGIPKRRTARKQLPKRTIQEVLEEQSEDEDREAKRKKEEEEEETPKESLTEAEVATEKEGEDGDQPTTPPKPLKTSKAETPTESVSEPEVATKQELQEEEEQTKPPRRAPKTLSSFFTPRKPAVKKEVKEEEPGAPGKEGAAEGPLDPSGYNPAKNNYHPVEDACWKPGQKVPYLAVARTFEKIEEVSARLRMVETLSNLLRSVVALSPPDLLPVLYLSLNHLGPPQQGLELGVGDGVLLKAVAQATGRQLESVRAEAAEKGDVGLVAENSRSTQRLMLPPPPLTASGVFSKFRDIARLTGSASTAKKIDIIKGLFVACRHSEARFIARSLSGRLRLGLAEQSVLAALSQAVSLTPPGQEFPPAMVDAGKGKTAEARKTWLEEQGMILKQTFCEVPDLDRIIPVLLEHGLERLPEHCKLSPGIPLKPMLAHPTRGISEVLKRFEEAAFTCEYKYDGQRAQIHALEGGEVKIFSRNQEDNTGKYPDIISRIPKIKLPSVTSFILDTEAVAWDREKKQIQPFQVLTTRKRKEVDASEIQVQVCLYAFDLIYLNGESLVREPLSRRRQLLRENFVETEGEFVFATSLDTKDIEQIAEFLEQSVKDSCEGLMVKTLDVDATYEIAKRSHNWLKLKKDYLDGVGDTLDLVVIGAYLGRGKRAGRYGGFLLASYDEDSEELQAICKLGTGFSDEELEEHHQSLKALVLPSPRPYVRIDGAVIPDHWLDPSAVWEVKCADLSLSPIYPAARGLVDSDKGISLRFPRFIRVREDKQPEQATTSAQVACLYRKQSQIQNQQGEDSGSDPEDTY
# [14] = test system: FLT3 internal tandem duplication (ITD); design: method as in MedChemExpress [1][2][3]; conditions: ref MedChemExpress [1][2][3]; cited from earlier work
# [15] = test system: FLT3 D835Y; design: method as in MedChemExpress [1][2][3]; conditions: ref MedChemExpress [1][2][3]; cited from earlier work
# [16] = in DMSO; ref MedChemExpress; cited from earlier work
# [17] = test system: FLT3 WT; design: method as in MedChemExpress [1][2][3]; conditions: ref MedChemExpress [1][2][3]; cited from earlier work
# [18] = radioactive ligation assay, 500 nM Rlig1-AMP, 20 min 37 °C, read-out: IC50
# [19] = log(inhibitor) vs. response, variable slope (four parameters)
compound,measurement,setting,value
CCCc1cc(C(=O)N[C@H](Cc2ccc(-c3cccc(OC(F)(F)F)c3)nc2)C(=O)N[C@@H]2CCNC2)sc1C [AZ82],1-D Distance,[1]; HTS hits,670
same,1-D Distance.npi,[1]; HTS hits,96.1946
same,Raw data [w Enyzm],[1]; HTS hits,8773
same,Raw data [w/o Enzym],[1]; HTS hits,9443
same,pIC50,[2],6.52
same,pKi,[2],7.37
COc1nc(-c2cc(C)c(N[C@@H](C)c3ccc(F)cc3)nn2)ccc1-n1cnc(C)c1 [BPN-15606],pIC50,"[3]; read-out: IC50, production of Aβ40",7.77
same,pIC50,"[3]; read-out: IC50, production of Aβ42",8.15
same,1-D Distance,[1]; HTS hits,1474
same,1-D Distance.npi,[1]; HTS hits,75.4488
same,Raw data [w Enyzm],[1]; HTS hits,8858
same,Raw data [w/o Enzym],[1]; HTS hits,10332
same,solubility,[4],100 mg/mL and 238.97 mM
"Cc1cc(Nc2ccc(NC(=O)c3ccc(Nc4ccnc5ccccc45)cc3)cc2)nc(N)n1 [Compound 1, SGI-1027, reference compound]",inhibition at 10 µM,"[5]; 10 µM compound, 37 °C, 20 min",> 70%
same,formation of the RNA-adenylate intermediate,[5]; dose-response urea-PAGE (Fig. S3),inhibited the formation of the RNA-adenylate intermediate
same,pIC50,[5]; [18],5.40
same,cell morphology,[6],poor adherence and cell shrinkage
same,inhibition at 10 µM,"[1]; 10 μM compound, read-out: inhibition in HTS",> 70%
same,1-D Distance,[1]; HTS hits,390
same,Raw data [w Enyzm],[1]; HTS hits,8456
same,Raw data [w/o Enzym],[1]; HTS hits,8066
same,28S/18S ratio,[7],> 2
same,solubility,[4],27 mg/mL and 58.50 mM
same,pIC50,"[8]; DNMT1, poly(dI-dC) as substrate, ref MedChemExpress, read-out: IC50",4.90
same,pIC50,"[8]; DNMT3A, poly(dI-dC) as substrate, ref MedChemExpress, read-out: IC50",5.10
same,pIC50,"[8]; DNMT3B, poly(dI-dC) as substrate, ref MedChemExpress, read-out: IC50",5.12
same,pIC50,[8]; read-out: IC50 DNMTs,4.89 to 5.22
same,"viability at 24 h, 0.234375 µM",[9],113%
same,"viability at 24 h, 0.46875 µM",[9],103%
same,"viability at 24 h, 0.9375 µM",[9],104%
same,"viability at 24 h, 1.875 µM",[9],101%
same,"viability at 24 h, 3.75 µM",[9],91.9%
same,"viability at 24 h, 7.5 µM",[9],83.6%
same,"viability at 24 h, 15 µM",[9],60.5%
same,"viability at 24 h, 30 µM",[9],51%
same,"viability at 24 h, 30 µM",[10],50%
same,cell viability under oxidative stress (in words),[11],almost complete loss of viability
same,cytotoxicity (in words),"[12]; HEK293, 24 h, up to 30 μM",moderate cytotoxicity
same,IC50 (Figure 3D: EC50 values for plot; log(inhibitor) vs. response -- Variable slope (four parameters)),"[12]; HEK293 cell viability, fit per plate (3 plates, 4 technical replicates each), highest tested concentration 30 µM",26.0265 µM and 22.3419 µM and 19.1567 µM
same,LogIC50 (log(inhibitor) vs. response -- Variable slope (four parameters)),"[12]; HEK293 cell viability, fit per plate (3 plates, 4 technical replicates each), log of [µM]",1.415 and 1.349 and 1.282
same,pEC50,"[12]; Homo sapiens, HEK293, 24 h",4.63
Nc1nccc(Nc2ccc(NC(=O)c3ccc(Nc4ccnc5ccccc45)cc3)cc2)n1 [Compound 26],inhibition of Rlig1-AMP ligation (urea-PAGE),"[5]; 10 μM compound, 500 nM Rlig1-AMP, 20 min 37 °C",Ligation was inhibited; also recorded: fully inhibited
same,HillSlope (best-fit value),[5]; four-parameter fit,3.34
same,Span (best-fit value),[5]; four-parameter fit,95.37
same,pIC50,"[5]; four-parameter fit, read-out: IC50 (best-fit value)",5.35
same,percentage inhibition (dose response curve for IC50),[5]; log Compound [µM] 0.273001,7.036 and 5.771 and 6.366
same,percentage inhibition (dose response curve for IC50),[5]; log Compound [µM] 0.574031,19.5464 and 52.3001 and 38.2038
same,percentage inhibition (dose response curve for IC50),[5]; log Compound [µM] 0.875061,94.6767 and 96.3427 and 56.3237
same,percentage inhibition (dose response curve for IC50),[5]; log Compound [µM] 1.17609,97.6992 and 100 and 95.9858
same,percentage inhibition (dose response curve for IC50),[5]; log Compound [µM] 1.47712,89.2369 and 100 (2×)
same,percentage inhibition (dose response curve for IC50),[5]; log Compound [µM] -0.0280287,3.692 and 2.642 and 2.052
same,percentage inhibition (dose response curve for IC50),[5]; log Compound [µM] -0.329059,0 and 3.294 and 5.142
same,percentage inhibition (dose response curve for IC50),[5]; log Compound [µM] -0.630089,0 and 3.877 and 4.72
same,LogIC50 (best-fit value),"[5]; log of µM, four-parameter fit",0.6524
same,Bottom (best-fit value),[5]; [19],2.425
same,Top (best-fit value),[5]; [19],97.8
same,pIC50,[5]; [18],5.35
same,cell morphology,[6],poor adherence and cell shrinkage
same,DNA product formation,[13]; hlig1 0.0315 µM,43.039% and 22.9913% and 34.3002%
same,DNA product formation,[13]; hlig1 0.0625 µM,60.9211% and 39.0213% and 52.249%
same,DNA product formation,[13]; hlig1 0.5 µM,79.5392% and 84.6219% and 85.9221%
Cc1ccc2c(-c3nc(Nc4cc(CN5C[C@@H](C)N[C@@H](C)C5)cc(C5CC5)c4)ncc3Cl)c[nH]c2c1 [HM43239],1-D Distance,[1]; sheet HTS hits,834
same,Raw data [w Enyzm],[1]; sheet HTS hits,6467
same,Raw data [w/o Enzym],[1]; sheet HTS hits,5633
same,pIC50,[14],8.74
same,"solubility, DMSO",[16],DMSO : 125 mg/mL (249.47 mM; Need ultrasonic)
